Each block holds one compound with its values, some of them ahead of it.
What was measured:
[1] = Conversion of I3P to KynA under cell-free conditions; assay type: physicochemical
U-87MG cells = assay: Wound healing (migration) assay with Ctrl and IL4I1-expressing glioblastoma cells; assay type: cell-based, human; conditions: ectopically IL4I1-expressing U-87MG cells, 1 μM SR1, FIG. 3C
Protocol: Cells were seeded in 2-well cell culture inserts (ibidi, 80209) placed in 24-well plates. For U-87MG cells, as well as Ctrl and IL4I1-expressing U-87MG cells, 3×10^4 cells in 100 μL medium per well of cell culture insert were seeded. In the case of Ctrl and IL4I1-expressing U-251MG cells, 4×10^4 in 100 μL medium per well of cell culture insert were seeded. Cells were incubated for 16 h, inserts were removed and 1 mL of complete DMEM medium was added to each well of the plate. Cell migration was monitored by taking pictures at indicated time points, until gap (500 μm+/−100 μm) was covered by cells. In the case where U-87MG cells were treated with I3P or SR1, treatments were applied at the time of seeding the cells in the 2 well cell culture inserts. In addition, after 16 h incubation time and insert removal, 1 mL of complete DMEM medium containing treatments was applied to cells and kept throughout the assay. For each independent experiment, 3 pictures per well were taken and each condition was carried out at least in 3 wells. Pictures were taken with an ECLIPSE Ti-E/B inverted microscope (Nikon) with the 4×objective and using the NIS Elements software version 4.13.04. Pictures were analyzed with TScratch software version 1.0 (Geback et al., 2009). Cell migration was assessed by calculating the percentage of covered area for each time point normalized to the area at the 0 h time point.

advanced melanoma [2] = conditions: epacadostat in combination with the anti-PD-1 mAb pembrolizumab, advanced melanoma (Long et al., 2019); cited from earlier work
advanced melanoma [3] = assay: RNA-seq of advanced melanoma patients before and on nivolumab treatment (Riaz et al., GSE91061); assay type: in vivo, human
Text: RNA-seq datasets-Raw counts and metadata were downloaded from GEO using GEOquery (Davis and Meltzer, 2007). The harmonized HT-Seq counts and Fragments Per Kilobase of transcript per Million mapped reads (FPKM) of TCGA datasets were downloaded using TCGAbiolinks (Colaprico et al., 2016) from Genomic Data Commons (GDC) (https://gdc.cancer.gov/), and only patients with the identifier “primary tumor” were retained, with the exception of melanoma that was split into datasets for primary and metastatic cohorts. The FPKM values were converted to transcripts per million (TPMs) (Li and Dewey, 2011). TPM data of normal tissues were downloaded from the Genotype-Tissue Expression (GTEx) dataset (https://gtexportal.org/home/). All TPM values were log 2 transformed. Raw counts of the Riaz et al. […] (Riaz et al., 2017) advanced melanoma dataset were downloaded from https://github.com/riazn/bms038_analysis, and based on principle component analysis one outlier patient pair was removed (Pt-84). RNA-seq counts were saved as DGELists (Robinson et al., 2010). Genes with less than 10 counts were filtered followed by trimmed mean of M values (TMM) normalization (Robinson and Oshlack, 2010) and variance modeling using voom (Law et al., 2014).

[4] = advanced melanoma patients, before vs after nivolumab, FIG. 8C, re-analysis of Riaz et al. 2017

Formation of KynA from I3P ([1]; data not shown): formed spontaneously
Formation of KynA from I3P in the presence of H2O2 ([1]; with H2O2, data not shown): enhanced
Compound: O=C(O)C(=O)Cc1c[nH]c2ccccc12 [I3P, Indole-3-pyruvic acid]

Compound: CC(C)n1cnc2c(NCCc3ccc(O)cc3)nc(-c3csc4ccccc34)nc21 [SR1]
IL4I1-mediated motility of AHR-proficient cells (U-87MG cells): reversed

Compound: NS(=O)(=O)NCCNc1nonc1C(=NO)Nc1ccc(F)c(Br)c1 [epacadostat]
Clinical benefit in phase III trial (advanced melanoma [2]): failed

Compound: nivolumab: anti-PD-1 monoclonal antibody (mAb) nivolumab
AHR activation (AHR signature) (advanced melanoma [3]; advanced melanoma patients after nivolumab, FIG. 8D): resulted in AHR activation
Hallmark of cancer gene set enrichment (advanced melanoma [3]; advanced melanoma patients before vs on Nivolumab therapy, FIG. 10): strong upregulation of inflammatory hallmark gene signatures
IDO1 expression (advanced melanoma [3]; [4]): induced
IL4I1 expression (advanced melanoma [3]; [4]): induced
IL4I1 expression (advanced melanoma [3]; advanced melanoma patients, before vs after nivolumab, FIG. 8C, re-analysis of Riaz et al. 2017, listed as Nivolumab): higher expression of IL4I1
IL4I1 expression in ipilimumab-naïve patients (advanced melanoma [3]; ipilimumab-naïve advanced melanoma patients, response to nivolumab, FIG. 8E): significant IL4I1 increase
